Assay: Safety in phase 1/1b study (DLTs, TRAEs, TEAEs; CTCAE v4.03)
Format: in vivo, human
Description: Safety assessments included evaluation of DLTs, AEs, physical examinations, vital sign measurements, electrocardiogram recordings and laboratory tests.
A DLT was defined as a grade ≥ 4 hematologic abnormality lasting ≥ 4 days; grade 3 thrombocytopenia with clinically significant bleeding; febrile neutropenia; clinically significant grade ≥ 3 non-hematologic AEs not related to underlying malignancy; intolerable grade 2 AEs; or toxicity resulting in an inability to deliver 80% of the dose during the first treatment cycle.
The safety population included all patients who received ≥ 1 dose of sitravatinib. […] The PK evaluable population included all patients with sufficient concentration-time data for PK parameter evaluation. The modified intent-to-treat (mITT) population included all phase 1b patients who received ≥ 1 dose of study drug.

In the case of `COCCNCc1ccc(-c2cc3nccc(Oc4ccc(NC(=O)C5(C(=O)Nc6ccc(F)cc6)CC5)cc4F)c3s2)nc1` [sitravatinib, Sitravatinib], the “Patients discontinued due to TRAEs” value (120 mg) is reported as 11.3%, the “Patients with grade ≥ 3 TRAEs” value (120 mg arm) is reported as 51.6% and the “Patients with serious TRAEs” value (120 mg arm) is reported as 8.1%. For the same compound, the “ALT increased TEAE, any grade” value (120 mg phase 1b) was 17 (27.4) n (%), the “ALT increased TEAE, grade ≥3” value (120 mg phase 1b) was 1 (1.6) n (%) and the “ALT increased TRAE, any grade” value (120 mg phase 1b) was 15 (24.2) n (%). The “ALT increased TRAE, grade ≥3” value (120 mg phase 1b) was 1 (1.6) n (%), the “AST increased TEAE, any grade” value (120 mg phase 1b) was 16 (25.8) n (%) and the “AST increased TEAE, grade ≥3” value (120 mg phase 1b) was 0 n (%). For the same compound, the “AST increased TRAE, any grade” value (120 mg phase 1b) was 14 (22.6) n (%), the “AST increased TRAE, grade ≥3” value (120 mg phase 1b) was 0 n (%) and the “Abdominal pain TEAE, any grade” value (120 mg phase 1b) was 14 (22.6) n (%). For the same compound, the “Abdominal pain TEAE, grade ≥3” value (120 mg phase 1b) was 3 (4.8) n (%), the “Abdominal pain TRAE, any grade” value (120 mg phase 1b) was 8 (12.9) n (%) and the “Abdominal pain TRAE, grade ≥3” value (120 mg phase 1b) was 0 n (%). For the same compound, the “Anemia TEAE, any grade” value (120 mg phase 1b) was 10 (16.1) n (%), the “Anemia TEAE, grade ≥3” value (120 mg phase 1b) was 3 (4.8) n (%) and the “Any TEAE” value (120 mg phase 1b) was 60 (96.8) n (%). The “Any TRAE” value (120 mg phase 1b) was 58 (93.5) n (%), the “Asthenia TEAE, any grade” value (120 mg phase 1b) was 7 (11.3) n (%) and the “Asthenia TEAE, grade ≥3” value (120 mg phase 1b) was 0 n (%). The “Back pain TEAE, any grade” value (120 mg phase 1b) was 6 (9.7) n (%), the “Back pain TEAE, grade ≥3” value (120 mg phase 1b) was 0 n (%) and the “Blood and lymphatic system disorders TEAE, any grade” value (120 mg phase 1b) was 16 (25.8) n (%). The “Blood and lymphatic system disorders TEAE, grade ≥3” value (120 mg phase 1b) was 7 (11.3) n (%), the “Blood creatinine increased TEAE, any grade” value (120 mg phase 1b) was 3 (4.8) n (%) and the “Blood creatinine increased TEAE, grade ≥3” value (120 mg phase 1b) was 0 n (%). For the same compound, the “Cardiac disorders TEAE, any grade” value (120 mg phase 1b) was 6 (9.7) n (%), the “Cardiac disorders TEAE, grade ≥3” value (120 mg phase 1b) was 2 (3.2) n (%) and the “Constipation TEAE, any grade” value (120 mg phase 1b) was 21 (33.9) n (%). For the same compound, the “Constipation TEAE, grade ≥3” value (120 mg phase 1b) was 0 n (%), the “Constipation TRAE, any grade” value (120 mg phase 1b) was 11 (17.7) n (%) and the “Constipation TRAE, grade ≥3” value (120 mg phase 1b) was 0 n (%). The “Cough TEAE, any grade” value (120 mg phase 1b) was 7 (11.3) n (%), the “Cough TEAE, grade ≥3” value (120 mg phase 1b) was 0 n (%) and the “Decreased appetite TEAE, any grade” value (120 mg phase 1b) was 21 (33.9) n (%). For the same compound, the “Decreased appetite TEAE, grade ≥3” value (120 mg phase 1b) was 2 (3.2) n (%), the “Decreased appetite TRAE, any grade” value (120 mg phase 1b) was 17 (27.4) n (%) and the “Decreased appetite TRAE, grade ≥3” value (120 mg phase 1b) was 1 (1.6) n (%). For the same compound, the “Dehydration TEAE, any grade” value (120 mg phase 1b) was 8 (12.9) n (%), the “Dehydration TEAE, grade ≥3” value (120 mg phase 1b) was 0 n (%) and the “Diarrhea TEAE, any grade” value (120 mg phase 1b) was 36 (58.1) n (%). The “Diarrhea TEAE, grade ≥3” value (120 mg phase 1b) was 4 (6.5) n (%), the “Diarrhea TRAE, any grade” value (120 mg phase 1b) was 31 (50.0) n (%) and the “Diarrhea TRAE, grade ≥3” value (120 mg phase 1b) was 4 (6.5) n (%). For the same compound, the “Dizziness TEAE, any grade” value (120 mg phase 1b) was 10 (16.1) n (%), the “Dizziness TEAE, grade ≥3” value (120 mg phase 1b) was 0 n (%) and the “Dizziness TRAE, any grade” value (120 mg phase 1b) was 6 (9.7) n (%). The “Dizziness TRAE, grade ≥3” value (120 mg phase 1b) was 0 n (%), the “Dry mouth TEAE, any grade” value (120 mg phase 1b) was 7 (11.3) n (%) and the “Dry mouth TEAE, grade ≥3” value (120 mg phase 1b) was 0 n (%). The “Dry mouth TRAE, any grade” value (120 mg phase 1b) was 7 (11.3) n (%), the “Dry mouth TRAE, grade ≥3” value (120 mg phase 1b) was 0 n (%) and the “Dysphonia TEAE, any grade” value (120 mg phase 1b) was 16 (25.8) n (%). The “Dysphonia TEAE, grade ≥3” value (120 mg phase 1b) was 0 n (%), the “Dysphonia TRAE, any grade” value (120 mg phase 1b) was 12 (19.4) n (%) and the “Dysphonia TRAE, grade ≥3” value (120 mg phase 1b) was 0 n (%). The “Dyspnea TEAE, any grade” value (120 mg phase 1b) was 5 (8.1) n (%), the “Dyspnea TEAE, grade ≥3” value (120 mg phase 1b) was 1 (1.6) n (%) and the “Edema peripheral TEAE, any grade” value (120 mg phase 1b) was 6 (9.7) n (%). For the same compound, the “Edema peripheral TEAE, grade ≥3” value (120 mg phase 1b) was 0 n (%), the “Endocrine disorders TEAE, any grade” value (120 mg phase 1b) was 20 (32.3) n (%) and the “Fatigue TEAE, any grade” value (120 mg phase 1b) was 26 (41.9) n (%). The “Fatigue TEAE, grade ≥3” value (120 mg phase 1b) was 7 (11.3) n (%), the “Fatigue TRAE, any grade” value (120 mg phase 1b) was 21 (33.9) n (%) and the “Fatigue TRAE, grade ≥3” value (120 mg phase 1b) was 6 (9.7) n (%). The “Gastrointestinal disorders TEAE, any grade” value (120 mg phase 1b) was 53 (85.5) n (%), the “General disorders and administration site conditions TEAE, any grade” value (120 mg phase 1b) was 38 (61.3) n (%) and the “General disorders and administration site conditions TEAE, grade ≥3” value (120 mg phase 1b) was 8 (12.9) n (%). The “Headache TEAE, grade ≥3” value (120 mg phase 1b) was 1 (1.6) n (%), the “Hypertension TEAE, any grade” value (120 mg phase 1b) was 25 (40.3) n (%) and the “Hypertension TEAE, grade ≥3” value (120 mg phase 1b) was 12 (19.4) 12 (19.4) n (%). The “Hypertension TRAE, any grade” value (120 mg phase 1b) was 24 (38.7) n (%), the “Hypertension TRAE, grade ≥3” value (120 mg phase 1b) was 11 (17.7) n (%) and the “Hypokalemia TEAE, any grade” value (120 mg phase 1b) was 4 (6.5) n (%). For the same compound, the “Hypokalemia TEAE, grade ≥3” value (120 mg phase 1b) was 0 n (%), the “Hypomagnesemia TEAE, any grade” value (120 mg phase 1b) was 4 (6.5) n (%) and the “Hypomagnesemia TEAE, grade ≥3” value (120 mg phase 1b) was 0 n (%). For the same compound, the “Hyponatremia TEAE, any grade” value (120 mg phase 1b) was 6 (9.7) n (%).
